Source: the PolyMetriX glass transition set
± gives the standard deviation of the reports.

Row | SMILES | glass transition temperature [°C]
1 | *c1ccc2c(c1)Sc1cc(-c3sc4cc(*)sc4c3CCCCC)ccc1N2CCCCCCCCCC (repeat unit) | 131.00
2 | *CCC(c1ccccc1)[Si](*)(C)C (repeat unit) | 27.00
3 | *CCOC(=O)c1ccc2ccc(C(=O)O*)cc2c1 (repeat unit) | 119.00
4 | *CC(*)c1ccc(C(C)(C)C)cc1 (repeat unit) [Poly(p-t-butyl styrene)] | 129 ± 5.6
5 | *C#Cc1cccc(C#C[SiH2]*)c1 (repeat unit) | 72.00
6 | *Oc1ccc(CC(NC(=O)CCc2ccc(OC(=O)COCCOCC(*)=O)cc2)C(=O)OC)cc1 (repeat unit) | 63.00
7 | *Oc1ccc(C2(c3ccc(OC(*)=O)c(C)c3)CC3CCC2C3)cc1C (repeat unit) | 161.00
8 | *Oc1c(Cl)cc(C2(c3cc(Cl)c(OC(*)=O)c(Cl)c3)CCCCC2)cc1Cl (repeat unit) | 163.00
9 | *CCCCCCOC(=O)C(CCCCCCP(=O)(O)O)C(=O)OCCCCCCOc1ccc(-n2on2-c2ccc(O*)cc2)cc1 (repeat unit) | 21.00
10 | *CCC(C)(C)CC(C)COC(=O)c1ccc(C(=O)O*)cc1 (repeat unit) | -9.00
11 | *CC(=O)OC(=O)COc1ccc(C(C)(C)c2ccc(O*)cc2)cc1 (repeat unit) | 105.00
12 | *CC(CCCCCCCC)COC(=O)NC(=O)c1cccc(C(=O)NC(=O)O*)c1 (repeat unit) | 65.00
13 | *CC(OCCCC)C(C)(C(=O)OC)C(*)(C)C(=O)OC (repeat unit) | 97.50
14 | *c1ccc2c(c1)C(=O)N(c1cccc(Oc3ccc(P(=O)(c4ccccc4)c4ccc(Oc5cccc(N6C(=O)c7ccc(C(*)(C(F)(F)F)C(F)(F)F)cc7C6=O)c5)cc4)cc3)c1)C2=O (repeat unit) | 243.00
15 | *CC(F)(F)C(F)(F)C(F)(F)C(F)(F)COC(=O)NCCCCCCNC(=O)O* (repeat unit) | -2.00
16 | *CCC[Si](*)(C)O[Si](C)(C)CCCOc1ccc(C#N)cc1 (repeat unit) | -45.50
17 | *CCOc1ccc(S(=O)(=O)c2ccc(OCCOP(=O)(O*)Oc3ccc([N+](=O)[O-])cc3)cc2)cc1 (repeat unit) | 56.00
18 | *c1ccc2c(c1)C(=O)N(c1cccc(P(=O)(c3ccc(C(F)(F)F)cc3)c3cccc(N4C(=O)c5ccc(C(*)(C(F)(F)F)C(F)(F)F)cc5C4=O)c3)c1)C2=O (repeat unit) | 260.00
19 | *CC(CCCCCCOc1ccc(/N=N/c2ccc(C#N)cc2)cc1)COC(=O)CCCCCCCCCCCCC(=O)O* (repeat unit) | 21.50
20 | *CC1CC(COC(=O)c2ccc(C(=O)O*)cc2)CC(C(C)(C)C)C1 (repeat unit) | 118.00
21 | *CC(C)O* (repeat unit) [Poly(propylene glycol)] | -69.18 ± 2.6
22 | *NC1CCC(CCC2CCC(NC(=O)CCCCCCCCCCC(*)=O)CC2)CC1 (repeat unit) | 105.00
23 | *CC(*)(C)c1ccc2ccccc2n1 (repeat unit) | 193.00
24 | *CCCCCC(=O)O* (repeat unit) [Poly(caprolactone)] | 55.0 ± 78
25 | *CCNC(=O)c1ccc(C(=O)N*)c(Oc2ccccc2)c1 (repeat unit) | 164.00
26 | *Oc1ccc(CC(NC(=O)CCc2ccc(OC(=O)CCCC(*)=O)cc2)C(=O)OC)cc1 (repeat unit) | 76.00

Further lines, results first:

Row | glass transition temperature [°C] | SMILES
27 | 242.20 | *Oc1ccc(S(=O)(=O)c2ccc(Oc3ccc(-c4ccc(*)cc4)cc3)cc2N)c(N)c1 (repeat unit)
28 | 196.00 | *Oc1ccc(C(c2ccc(OC(*)=O)cc2)C2C3CCC(C3)C2c2ccccc2)cc1 (repeat unit)
29 | 282.00 | *Oc1ccc(S(=O)(=O)c2ccc(-c3ccc(S(=O)(=O)c4ccc(*)cc4)cc3)cc2)cc1 (repeat unit)
30 | 341.50 | *C(=O)c1ccc2c(c1)C(=O)N(c1ccc3c(c1)Cc1cc(N4C(=O)c5ccc(*)cc5C4=O)ccc1-3)C2=O (repeat unit)
31 | 227.00 | *c1ccc2c(c1)C(=O)N(c1ccc(N(C)CCN(C)c3ccc(N4C(=O)c5ccc(C(*)(C(F)(F)F)C(F)(F)F)cc5C4=O)cc3)cc1)C2=O (repeat unit)
32 | 257.00 | *C(=O)Nc1ccc(Cc2ccc(NC(=O)c3ccc4c(c3)C(=O)N(c3ccc(/N=N/c5ccc(C)cc5)c(N5C(=O)c6ccc(*)cc6C5=O)c3)C4=O)c(C)c2)cc1C (repeat unit)
33 | 203.50 | *Oc1ccc(-c2ccc(Oc3ccc(-c4ccc(-c5ccc(*)c(C(F)(F)F)c5)cc4)cc3C(F)(F)F)cc2)cc1 (repeat unit)
34 | 267.00 | *c1ccc(Oc2ccc(-c3nc4ccc(Oc5ccc(N6C(=O)c7ccc(C(c8ccc9c(c8)C(=O)N(c8ccc(Oc%10ccc%11nc(*)c(-c%12ccccc%12)nc%11c%10)cc8)C9=O)(C(F)(F)F)C(F)(F)F)cc7C6=O)cc5)cc4nc3-c3ccccc3)cc2)cc1 (repeat unit)
35 | 159.00 | *Oc1cccc(OC(=O)c2ccc(Oc3ccc(C(*)=O)cc3)cc2)c1 (repeat unit)
36 | 199.92 ± 1.5 | *Oc1ccc(C(C)(C)c2ccc(OC(=O)c3ccc(C(*)=O)cc3)cc2)cc1 (repeat unit) [Poly(Bisphenol A terephthalate)]
37 | 250.00 | *C(=O)Nc1ccc(Oc2ccc(C(C)(C)c3ccc(Oc4ccc(NC(=O)c5ccc6c(c5)C(=O)N(c5ccc(Oc7ccc8ccc(Oc9ccc(N%10C(=O)c%11ccc(*)cc%11C%10=O)cc9)cc8c7)cc5)C6=O)cc4)cc3)cc2)cc1 (repeat unit)
38 | 163.00 | *c1ccc(Oc2ccc(N3C(=O)N4C(c5ccc(OC)cc5)N(*)C(=O)N4C3c3ccc(OC)cc3)cc2)cc1 (repeat unit)
39 | 290.00 | *C(=O)Nc1ccc(Oc2cc(C(C)(C)C)c(Oc3ccc(NC(=O)c4ccc5c(c4)C(=O)N(c4ccc(Oc6ccc(C7(c8ccc(Oc9ccc(N%10C(=O)c%11ccc(*)cc%11C%10=O)cc9)cc8)CC8CC7C7CCCC87)cc6)cc4)C5=O)cc3)cc2C(C)(C)C)cc1 (repeat unit)
40 | 201.00 | *c1ccc(Oc2ccc(Sc3ccc(Oc4ccc(N5C(=O)c6ccc(Oc7ccc(Oc8ccc9c(c8)C(=O)N(*)C9=O)cc7)cc6C5=O)cc4)cc3)cc2)cc1 (repeat unit)
41 | 203.00 | *c1ccc(Oc2ccc(C(c3ccc(Oc4ccc(-c5nnc(*)n5-c5ccccc5)cc4)cc3)(C(F)(F)F)C(F)(F)F)cc2)cc1 (repeat unit)
42 | 117.00 | *CCN(CCOC(=O)c1ccc(C(=O)O*)c(OCCC)c1)c1ccc(/N=N/c2ccc(-c3nc4ccccc4o3)cc2)cc1 (repeat unit)
43 | 287.00 | *c1ccc(-c2ccc(C3(*)CCCCC3)cc2)cc1 (repeat unit)

Row | glass transition temperature [°C] | SMILES
44 | 212.00 | *Oc1cccc2ccc(Oc3ccc(NC(=O)c4ccc(Oc5ccc(C(C)(c6ccccc6)c6ccc(Oc7ccc(C(=O)Nc8ccc(*)cc8)cc7)cc6)cc5)cc4)cc3)cc12 (repeat unit)
45 | 147.00 | */C=C/c1ccc(-c2nnc(-c3ccc(/C=C/c4ccc5c(c4)c4cc(*)ccc4n5CCCCCCCC)cc3)n2-c2ccccc2)cc1 (repeat unit)
46 | 290.00 | *C(=O)c1cc2c(cc1Cl)C(=O)N(c1cc(N3C(=O)c4cc(*)c(Cl)cc4C3=O)cc(C(C)(C)C)c1)C2=O (repeat unit)
47 | 120.00 | *CCCCCCCCN1C(=O)c2ccc(-c3ccc(-c4ccc5c(c4)C(=O)N(*)C5=O)cc3)cc2C1=O (repeat unit)
48 | 422.00 | *c1ccc(S(=O)(=O)c2ccc(-n3nc(-c4ccccc4)c4ccc(S(=O)(=O)c5ccc6c(-c7ccccc7)nn(*)c(=O)c6c5)cc4c3=O)cc2)cc1 (repeat unit)
49 | 117.00 | *c1ccc(Oc2ccc(-c3csc(/N=C/c4ccc(OCCCCCCOc5ccc(/C=N/c6nc(*)cs6)cc5)cc4)n3)cc2)cc1 (repeat unit)
50 | 309.00 | *c1ccc2c(c1)C(=O)N(c1cccc(Oc3ccc(N4C(=O)c5ccc(-c6c(-c7ccccc7)c(-c7ccccc7)c(-c7ccc(Oc8ccc(-c9c(-c%10ccccc%10)c(-c%10ccccc%10)c(*)c(-c%10ccccc%10)c9-c9ccccc9)cc8)cc7)c(-c7ccccc7)c6-c6ccccc6)cc5C4=O)cc3)c1)C2=O (repeat unit)
51 | 361.00 | *C(=O)Nc1cc(NC(=O)c2ccc3c(c2)C(=O)N(c2cccc(N4C(=O)c5ccc(*)cc5C4=O)c2)C3=O)cc(-c2nc3ccccc3[nH]2)c1 (repeat unit)
52 | 204.00 | *Oc1ccc(C(=O)c2cccc(NC(=O)c3cccc(C(=O)Nc4ccc(C(=O)c5ccc(*)cc5)cc4)c3)c2)cc1 (repeat unit)
53 | 224.00 | *CC(=O)Nc1ccc(Oc2ccc(C(C)(C)c3ccc(Oc4ccc(NC(=O)CN5C(=O)c6ccc(C(c7ccc8c(c7)C(=O)N(*)C8=O)(C(F)(F)F)C(F)(F)F)cc6C5=O)cc4)cc3)cc2)cc1 (repeat unit)
54 | 58.30 | *c1ccc(-c2sc(-c3ccc(-c4cc(CCCC)c(*)s4)cc3)cc2CCCC)cc1 (repeat unit)
55 | 251.00 | *C(=O)Nc1ccc(Oc2ccc(NC(=O)c3ccc4c(c3)C(=O)N(c3ccc(Cc5ccc(N6C(=O)c7ccc(*)cc7C6=O)cc5)cc3)C4=O)cc2)cc1 (repeat unit)
56 | 250.00 | *c1ccc2c(c1)C(=O)N(c1cccc(C(=O)Nc3ccc(C(c4ccc(NC(=O)c5cccc(N6C(=O)c7ccc(C(*)(C(F)(F)F)C(F)(F)F)cc7C6=O)c5C)cc4)(C(F)(F)F)C(F)(F)F)cc3)c1C)C2=O (repeat unit)
57 | 215.00 | *Oc1ccc(C2(c3ccc(OC(=O)CCC(*)=O)cc3)c3cc(N(C)C)ccc3-c3ccc([N+](=O)[O-])cc32)cc1 (repeat unit)
58 | 94.00 | *c1nc(-c2ccccc2)nc(N(CCCCN(*)c2ccccc2)c2ccccc2)n1 (repeat unit)
59 | 124.00 | *OC(COC(=O)c1ccc(C)cc1C(*)=O)COc1ccc(/N=N/c2ccc(C#N)cc2)cc1 (repeat unit)
